# Measurements: publication PMC4335062, “Data-Driven Prediction and Design of bZIP Coiled-Coil Interactions” (PLoS Computational Biology, 2015)
# Where two headings read alike, the source gives them in different places. Where no end group is shown, it is not given here.
# Tests used:
# Assay in all cases: Direct-binding FRET assay
# CREB3 = target: T1, CREB3 (Homo sapiens, UniProt O43889); conditions: mean or single, read-out: Kd
# T1 construct: made in house
# T1 sequence (O43889 150-213 limits assumed): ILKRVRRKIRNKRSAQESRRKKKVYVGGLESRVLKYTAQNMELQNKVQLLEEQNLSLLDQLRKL
# Procedure: (§1) The direct binding assay was performed manually in 384-well plates and is similar to a previously described assay. Wells were filled with 20 μL of 1 mM TCEP-HCl. A 4 μM stock of acceptor protein was made fresh in 1 mM TCEP-HCl, and 20 μL was titrated in 2-fold dilutions over the wells. […] The direct-binding FRET data were fit as previously described. Briefly, the Kd of the designed peptide homodimer was experimentally determined and used with previously determined target homodimer Kd values to determine the heterodimer Kd. The homodimer Kd values used for the human bZIPs were from; experiments done by […] et al. used the same protein constructs for the human bZIP proteins, the same buffer conditions, and the same assay. The fitting used a system of ordinary differential equations to describe the concentrations of homo and heterodimers formed by the donor (D) and acceptor (A) as a function of the heterodimer Kd. MATLAB was used to simulate the binding experiment for different Kd values, and the value that gave the best agreement between simulation and experiment was assigned. A minimum 15% change in the donor fluorescence upon titrating the acceptor peptide from 0 to 1000 nM was required for a fit to be attempted. If this minimum was not met, the interaction was classified as “NS” for no signal change. […] These interactions were marked “AS” to indicate anomalous signal. We attributed this to interactions between the peptides, the dyes and the walls of the assay plates at low concentrations. These curves could not be fit, given their unusual shapes at low concentrations of acceptor. For such curves, we removed the first five points and re-fit the data. […] One example of this is increasing concentrations of acceptor causing an increase in donor fluorescence.
# ATF5 = target: T2, ATF5 (Homo sapiens, UniProt Q9Y2D1); conditions: read-out: Kd
# T2 construct: made in house
# T2 sequence (Q9Y2D1 208-271 limits assumed): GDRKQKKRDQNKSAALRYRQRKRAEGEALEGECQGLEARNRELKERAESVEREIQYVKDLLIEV
# Procedure: as §1
# JUNB = target: T3, JUNB (Homo sapiens, UniProt P17275); conditions: read-out: Kd
# T3 construct: made in house
# T3 sequence (P17275 268-331 limits assumed): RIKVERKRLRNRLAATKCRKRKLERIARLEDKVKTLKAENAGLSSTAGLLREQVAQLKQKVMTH
# Procedure: as §1
# DBP = target: T4, DBP (Homo sapiens, UniProt Q10586); conditions: read-out: Kd
# T4 construct: made in house
# T4 sequence (Q10586 255-318 limits assumed): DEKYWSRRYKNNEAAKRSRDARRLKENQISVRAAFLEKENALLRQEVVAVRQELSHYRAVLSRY
# Procedure: as §1
# BATF2 = target: T5, BATF2 (Homo sapiens, UniProt Q8N1L9); conditions: read-out: Kd
# T5 construct: made in house
# T5 sequence (Q8N1L9 17-80 limits assumed): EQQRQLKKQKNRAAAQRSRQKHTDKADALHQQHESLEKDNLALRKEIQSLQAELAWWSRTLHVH
# Procedure: as §1
# HLF = target: T6, HLF (Homo sapiens, UniProt Q16534); conditions: read-out: Kd
# T6 construct: made in house
# T6 sequence (Q16534 225-288 limits assumed): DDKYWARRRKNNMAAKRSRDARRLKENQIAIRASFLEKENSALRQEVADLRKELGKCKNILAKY
# Procedure: as §1
# BATF3 = target: T7, BATF3 (Homo sapiens, UniProt Q9NR55); conditions: mean or single, read-out: Kd
# T7 construct: made in house
# T7 sequence (Q9NR55 35-98 limits assumed): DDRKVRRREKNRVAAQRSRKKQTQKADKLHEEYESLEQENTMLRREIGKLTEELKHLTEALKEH
# Procedure: as §1
# FOSL1 = target: T8, FOSL1 (Homo sapiens, UniProt P15407); conditions: read-out: Kd
# T8 construct: made in house
# T8 sequence (P15407 105-168 limits assumed): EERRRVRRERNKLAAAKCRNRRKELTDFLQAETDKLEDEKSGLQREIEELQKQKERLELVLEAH
# Procedure: as §1
# ATF2 = target: T9, ATF2 (Homo sapiens, UniProt P15336); conditions: read-out: Kd
# T9 construct: made in house
# T9 sequence (P15336 352-415 limits assumed): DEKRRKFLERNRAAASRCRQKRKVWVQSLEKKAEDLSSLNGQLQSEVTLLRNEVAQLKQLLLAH
# Procedure: as §1
# NFIL3 = target: T10, NFIL3 (Homo sapiens, UniProt Q16649); conditions: read-out: Kd
# T10 construct: made in house
# T10 sequence (Q16649 73-136 limits assumed): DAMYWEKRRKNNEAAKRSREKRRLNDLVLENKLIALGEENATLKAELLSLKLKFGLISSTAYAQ
# Procedure: as §1
# [1] = 4°C, C-terminal rhodamine design
# [2] = 4°C, N-terminal rhodamine design
# [3] = 23°C, C-terminal rhodamine design
# [4] = 23°C, N-terminal rhodamine design
# [5] = 37°C, C-terminal rhodamine design
# [6] = 37°C, N-terminal rhodamine design
# [7] = 4°C, C-terminal fluorescein design as donor, TAMRA target titrated
# [8] = 4°C, C-terminal rhodamine design, mean or single
# [9] = 23°C, C-terminal rhodamine design, mean or single
# [10] = 23°C, C-terminal rhodamine design, repeat 1
# [11] = 23°C, C-terminal rhodamine design, repeat 2
# [12] = 37°C, C-terminal fluorescein design as donor, TAMRA target titrated
# [13] = 37°C, C-terminal rhodamine design, mean or single
# [14] = 37°C, C-terminal rhodamine design, repeat 1
# [15] = 37°C, C-terminal rhodamine design, repeat 2
# [16] = 37°C, C-terminal rhodamine design, repeat 3
# [17] = 37°C, N-terminal rhodamine design, mean or single
# [18] = 4°C, N-terminal rhodamine design, mean or single
# [19] = 23°C, C-terminal fluorescein design as donor, TAMRA target titrated
# [20] = 23°C, N-terminal rhodamine design, mean or single
sequence,measurement,setting,value
NQIKTLRTRLSKLRKDNLQLEKDIANLERKAKDLRAEKEQLEYEL [ATF4-d1],Kd,CREB3; [1],> 1 µM
same,Kd,CREB3; [2],> 1 µM
same,Kd,CREB3; [3],> 1 µM
same,Kd,CREB3; [4],> 1 µM
same,Kd,CREB3; [5],> 5 µM
same,Kd,CREB3; [6],> 1 µM
same,Kd,ATF5; [7],0.0355 µM
same,Kd,ATF5; [8],> 5 µM
same,Kd,ATF5; [9],> 5 µM
same,Kd,ATF5; [10],> 5 µM
same,Kd,ATF5; [11],> 5 µM
same,Kd,"ATF5; 23°C, C-terminal rhodamine design, repeat 3",> 5 µM
same,Kd,"ATF5; 23°C, N-terminal rhodamine design, repeat 1",> 1 µM
same,Kd,ATF5; [12],> 1 µM
same,Kd,ATF5; [13],> 5 µM
same,Kd,ATF5; [14],> 5 µM
same,Kd,ATF5; [15],> 5 µM
same,Kd,ATF5; [16],> 5 µM
same,Kd,ATF5; [17],> 1 µM
same,Kd,"ATF5; 37°C, N-terminal rhodamine design, repeat 1",> 1 µM
same,Kd,"ATF5; 37°C, N-terminal rhodamine design, repeat 2",> 1 µM
same,Kd,"ATF5; 37°C, N-terminal rhodamine design, repeat 3",> 1 µM
same,Kd,JUNB; [7],> 1 µM
same,Kd,JUNB; [8],> 1 µM
same,Kd,JUNB; [18],> 1 µM
same,Kd,JUNB; [19],> 1 µM
same,Kd,JUNB; [9],> 1 µM
same,Kd,JUNB; [20],> 1 µM
same,Kd,JUNB; [12],> 1 µM
same,Kd,JUNB; [13],> 1 µM
same,Kd,JUNB; [17],> 1 µM
same,Kd,DBP; [8],> 5 µM
same,Kd,DBP; [18],> 1 µM
same,Kd,DBP; [19],> 1 µM
same,Kd,DBP; [9],> 1 µM
same,Kd,DBP; [20],> 1 µM
same,Kd,DBP; [12],> 1 µM
same,Kd,DBP; [13],> 1 µM
same,Kd,DBP; [17],> 1 µM
same,Kd,BATF2; [7],> 1 µM
same,Kd,BATF2; [8],> 1 µM
same,Kd,BATF2; [18],> 1 µM
same,Kd,BATF2; [19],> 1 µM
same,Kd,BATF2; [9],> 1 µM
same,Kd,BATF2; [20],> 1 µM
same,Kd,BATF2; [12],> 1 µM
same,Kd,BATF2; [13],> 1 µM
same,Kd,BATF2; [17],> 1 µM
same,Kd,HLF; [7],> 1 µM
same,Kd,HLF; [8],> 5 µM
same,Kd,HLF; [18],> 1 µM
same,Kd,HLF; [19],> 1 µM
same,Kd,HLF; [9],> 1 µM
same,Kd,HLF; [20],> 1 µM
same,Kd,HLF; [12],> 1 µM
same,Kd,HLF; [13],> 5 µM
same,Kd,HLF; [17],> 1 µM
same,Kd,BATF3; [1],> 1 µM
same,Kd,BATF3; [2],> 1 µM
same,Kd,BATF3; [3],> 1 µM
same,Kd,BATF3; [4],> 1 µM
same,Kd,BATF3; [5],> 1 µM
same,Kd,BATF3; [6],> 1 µM
same,Kd,FOSL1; [7],> 5 µM
same,Kd,FOSL1; [8],> 1 µM
same,Kd,FOSL1; [18],> 5 µM
same,Kd,FOSL1; [19],> 1 µM
same,Kd,FOSL1; [9],> 1 µM
same,Kd,FOSL1; [20],> 1 µM
same,Kd,FOSL1; [12],> 1 µM
same,Kd,FOSL1; [13],> 1 µM
same,Kd,FOSL1; [17],> 1 µM
same,Kd,ATF2; [7],> 5 µM
same,Kd,"ATF2; 4°C, C-terminal rhodamine design, repeat 1",> 5 µM
same,Kd,ATF2; [18],> 1 µM
same,Kd,ATF2; [19],> 1 µM
same,Kd,ATF2; [10],> 1 µM
same,Kd,ATF2; [20],> 1 µM
same,Kd,ATF2; [12],> 5 µM
same,Kd,ATF2; [14],> 5 µM
same,Kd,ATF2; [17],> 1 µM
same,Kd,NFIL3; [7],0.0424 µM
same,Kd,NFIL3; [8],0.0228 µM
same,Kd,NFIL3; [18],> 1 µM
same,Kd,NFIL3; [19],> 1 µM
same,Kd,NFIL3; [10],> 5 µM
same,Kd,NFIL3; [11],> 5 µM
same,Kd,NFIL3; [20],> 1 µM
same,Kd,NFIL3; [12],> 1 µM
same,Kd,NFIL3; [13],> 5 µM
same,Kd,NFIL3; [14],> 5 µM
same,Kd,NFIL3; [15],> 5 µM
same,Kd,NFIL3; [16],> 5 µM
same,Kd,NFIL3; [17],> 1 µM
